Reference: patent US9980924B2, “Topical pterostilbene compositions for use in treating UV-induced loss of barrier function in skin” (The Regents of the University of California, priority 2014, dated 2018)
Entries after “also recorded” stand apart in the source; their conditions may differ.

Experiments:
[1] = system: human liver microsomes; assay: in vitro glucuronidation assay with pooled human liver microsomes; type: in vitro ADME; conditions: 100 μg pooled human liver microsomes (n=20), 500 μM compound
Method: Human liver microsomes metabolize resveratrol much faster than pterostilbene. […] HPLC chromatographs are presented depicting either parent compound or indicated glucuronide metabolite. Glucuronide metabolite peaks were confirmed by subsequent treatment with β-glucuronidase (data not shown). Detection of peaks by UV/VIS detector at 308 nm.
Specifically, in vitro glucuronidation assays were performed as previously described in one co-inventor's work (Dellinger, R. W., et al., “Glucuronidation of PhIP and N—OH-PhIP by UDP-glucuronosyltransferase 1A10,” Carcinogenesis (2007) 28: 2412-8; Dellinger, R. W., et al., “Importance of UDP-glucuronosyltransferase 1A10 (UGT1A10) in the detoxification of polycyclic aromatic hydrocarbons: decreased glucuronidative activity of the UGT1A10139Lys isoform,” Drug Metab. Dispos. (2006) 34: 943-9; Chen, G., Dellinger, R. W., et al., “Glucuronidation of tobacco-specific nitrosamines by UGT2B10,” Drug Metab. Dispos.

[2] = system: SKH-1 mice; assay: UV-B-induced skin damage and loss of barrier function (redness, TEWL) in SKH-1 mice, topical treatment; type: in vivo; conditions: topical 10 μmol/0.2 ml acetone/mouse 30 minutes before 180 mJ/cm^2 UV-B, every 2 days, 7 treatments; for prevention of UV-mediated transepidermal water loss (TEWL) / loss of barrier function: versus vehicle+UV-B
Source text: FIG. 2 depicts the manner in which pterostilbene prevents UV-B induced damage in the skin of SKH-1 mice. […] Photographs show representative mice after 4th treatment.
FIG. 3 depicts the manner in which pterostilbene prevents UV-mediated loss of skin barrier function in SKH-1 mice after exposure to UV-B radiation as described above for FIG. 2. TEWL measurements are expressed in g/m^2·h (and labeled ‘TD Water Loss’).
UV-B exposure. Mice were exposed to a single dose of 180mJ/cm^2 UVB radiation delivered via broadband UVB lamps (TL 40W/12 RS; Philips) emitting 290-350 nm light with a peak emission at 312 nm. The irradiance was measured using a thermopile sensor (818P-001-12; Newport Inc., Irvine, Calif.) and power meter (842-PE; Newport Inc.).
TEWL measurement. For transepidermal water loss (TEWL) a closed measurement chamber device (VapoMeter, Delfin Technologies Ltd, Kuopio, Finland) measuring flux density (gram/m^2·h) was used applying the sensor with even and constant pressure to dorsal skin by a single operator per manufacturer's instructions.
Statistics. All statistical analyses were performed using CRAN R, version 3.0.0, an open-source program of The R Foundation for Statistical Computing. Linear mixed-effect models were fit for each endpoint with a random effect for the mouse and fixed effects for UV exposure, treatment group, and their interaction.
Hairless SKH-1 mice were used to evaluate the effectiveness of pterostilbene at preventing UV-mediated damage in skin. The SKH-1 model is ideally suited for this purpose and is commonly used in preclinical studies and yielded valuable results. […] To ascertain if pterostilbene could also prevent those molecular alterations, we replicated these experiments. […] For all topical treatments 200 μl total volume was applied to the back skin of the mouse. For acetone group, 200 μl of acetone was applied. […] These mice were treated every 2 days for 7 total treatments. […] 24 hrs after last treatment, mice were euthanized, skin bi-fold measurements taken and back skins collected. […] This prevention of visual skin damage by pterostilbene correlated nicely with the prevention of loss of barrier function. […] Therefore pterostilbene prevented UV-induced loss of barrier function of the skin of SKH-1 mice.

[3] = cited from earlier work
[4] = rats; cited from earlier work
[5] = 125 mg orally twice a day; cited from earlier work
[6] = system: mouse epidermis; conditions: cited from earlier work
[7] = system: mouse skin; conditions: cited from earlier work
[8] = humans; cited from earlier work

Row | SMILES | fraction metabolized (glucuronidated) after 2 hours [1] [%] | redness (sunburn) on back skin after UV-B [2] | prevention of UV-mediated transepidermal water loss (TEWL) / loss of barrier function [2] | half life t1/2 in blood [3] | increased bioavailability in comparison to resveratrol [4] [fold] | overall blood pressure [5] | toxicity in patients [5] | COX-2 activation and TPA-induced tumor formation in mouse epidermis in vivo [6] | conversion to glucuronides after 2 hours (in words) [1] | prevention of UV-mediated transepidermal water loss (TEWL) / loss of barrier function ([2]; listed as Resveratrol) | UV-B mediated cell damage (including hyperplasia) in mouse skin ([7]; given orally or applied topically) | UV-induced skin cancer progression ([7]; several mouse studies) | bioavailability (in words) [8]
1 | COc1cc(/C=C/c2ccc(O)cc2)cc(OC)c1 [pterostilbene, 3,5-dimethoxy-4′-hydroxy-trans-stilbene] | 20 | no redness was observed on any of the 5 mice | prevents TEWL after UV exposure; also recorded: prevented UV-mediated TEWL | about 105 minutes | 5 | reduction in overall blood pressure was observed | no toxicity reported | prevent |  |  |  |  | 
2 | Oc1ccc(C=Cc2cc(O)cc(O)c2)cc1 [resveratrol] |  | able to limit the amount of redness observed on the back, it did not prevent it | did not prevent TEWL | about 14 minutes |  |  |  |  | almost completely converted to its glucuronides | ineffective | prevents UV-B mediated cell damage (including hyperplasia) | block UV-induced skin cancer progression | poor bioavailability
